{"source": "patent US5484728A", "about": "(priority 1994, dated 1996)", "origin": "cited, not measured here", "data": [{"smiles": "CCOP(=S)(OCC)Oc1cc(C)nc(C(C)C)n1", "note": "[diazinon]", "values": [{"measurement": "half-life of diazinon in soil without enzyme present", "result": 226, "unit": "h"}]}]}
